Reference: paper PMC9400670, “Establishing the selective phospholipid membrane coordination, permeation and lysis properties for a series of ‘druggable’ supramolecular self-associating antimicrobial amphiphiles” (Chemical Science, 2022)
≈ marks a conversion by molar mass, not a printed value.

Key:
MRSA USA300 [1] = assay: MIC50 determination and initial screening from OD600 growth curves, MRSA USA300; assay type: cell-based, Staphylococcus aureus; conditions: Staphylococcus aureus, 15 h, Table S3, conversion of the mM values of Table 1; MRSA USA300; after 900 mins
Source text: (§1) The antimicrobial activity of SSAs 1–14 was established against both a model Gram-positive, clinically relevant methicillin resistant Staphylococcus aureus (MRSA), and a model Gram-negative, E. coli bacteria, Table 1. Here MIC50 values are given in mM to enable the derivation of molecular structure: antimicrobial efficacy: physical property relationships. […]
(§2) Data were acquired in endpoint mode. […]
(§3) Section 3: Microbial Methods
(§4) These methods were taken directly from UK Health and Security Office (UKHSA) standard operating […]
(§5) Preparation of Luria Broth media (LB): Yeast extract (5 g), tryptone (10 g) and sodium chloride (10 g) were dissolved in dH₂O (1 L) then divided into bottles and autoclaved.
(§6) Preparation of Luria Broth (LB) agar plates: Agar (6 g) was added to LB (400 mL) and autoclaved. Once cool, the LB agar was poured into sterile petri dishes under sterile conditions and allowed to set. LB plates were stored at 4 °C until use.
(§7) Preparation of bacterial plates: Sterile LB agar plates were streaked using Escherichia coli DH10B or USA300 Methicillin-Resistant Staphylococcus aureus then incubated at 37 °C overnight.
(§8) Preparation of Inoculum: An initial culture was made up by inoculating LB media (5 mL) with a single colony of bacteria under sterile conditions and incubated at 37 °C with shaking overnight. The following day, overnight bacterial cultures were subcultured into fresh LB medium to a starting OD600 […]
(§9) Preparation of 96 well microplate for screening: 20 mM solutions of each compound to be tested were made up using 5 % ethanol. The 1:100 cell suspension (150 µL) was pipetted into the wells and SSA compound solutions (30 µL) were added into each well. The final screening concentration for each compound was 3.3 mM in the well. These were incubated for 20 hours in a plate reader, with optical density readings being taken at 600 nm every 15 minutes. Optical density readings were plotted against time to produce growth curves. […]
(§10) individual wells under sterile conditions. Compounds (30 µL) were added to the wells to equal a total volume of 180 µL in the wells. Six repeats of each concentration for each compound were created each plate. The plates were sealed using parafilm, then incubated at 37°C in a microplate reader for 18-25 hours. Optical density readings were taken at 600 nm every 15 min. Data was used to generate […]
(§11) Calculation of MIC50: Growth curves were plotted using OD600 optical density readings in Microsoft ® Excel ® 2013. OD600 optical density readings 900 minutes from the start of each of these growth cultures for each concentration of compound were plotted in Origin ® 2015. The resultant curve was normalized and fitted using the Boltzmann fit to define the MIC50 values for each compound.

E. coli DH10B [2] = assay: MIC50 determination and initial screening from OD600 growth curves, E. coli DH10B; assay type: cell-based, Escherichia coli; conditions: Escherichia coli, 15 h; Table S3, conversion of the mM values of Table 1; E. coli DH10B; after 900 mins
Source text: as §1, §2, §3, §4, §5, §6, §7, §8, §9, §10, §11

[3] = tested on: calcein loaded phospholipid vesicles (PC, PG, PE-PG mix, E. coli total, E. coli polar); assay: Synthetic phospholipid vesicle lysis (calcein leakage) assay; conditions: SSA 1.5 mM; thirty seconds after SSA addition; five vesicle types; in words
Protocol: Here, samples of phospholipid vesicles containing the fluorescent dye calcein were prepared. At internal vesicle concentrations, this dye undergoes self-quenching. […] The increase in fluorescence output is proportional to the % of vesicle lysis observed upon the addition of SSAs 1–14, when calibrated against a solution of vesicles know to have undergone 100% lysis, see Fig. 5.
Fig. 5 The average (n = 3) percentage lysis (%) of vesicles (30 μM) composed of five different lipid compositions (Table 2), with an internal calcein concentration of 70 mM at 298 K. The % vesicle lysis was calculated through observation of increasing fluorescence emission (λem = 515 nm), following the addition of SSAs […] (1.5 mM) in a H2O/EtOH 95 : 5 solution after: (a) 30 s and; (b) 15 min. Triton X-100 (1%) was used as a positive control for 100% vesicle lysis. Data normalised to the addition of a H2O/EtOH 95 : 5 solution. Red = PC, yellow = PG, green = PE-PG mix, blue = E. coli total, pink = E. coli polar. Error = standard error.
Section 2: General Methods […]
Preparation of vesicles: All lipids were purchased as powder stocks from Avanti Polar Lipids. Lipid vesicles were prepared according to standard procedures.1 Each phospholipid was dissolved in chloroform (~ 10 mL) and the solvent was removed under reduced pressure. The thin film of dried lipid was further dried in vacuo for at least 2 hours. Lipid films were resuspended in the desired buffer and subjected to 9 freeze-thaw cycles in liquid nitrogen and extruded 20 times through a 200 nm […]
Preparation of calcein loaded vesicles: Lipid films were resuspended in buffer A (70 mM calcein, 10 mM TRIS pH 8.5, 0.5 mM EDTA, 110 mM NaCl, pH adjusted to 6-7) and subjected to 9 freeze-thaw cycles in liquid nitrogen and extruded 20 times through a 200 nm polycarbonate membrane. The suspension was run down a size exclusion column packed with sephadex G-50 using buffer B (10 mM TRIS pH 8.5, 0.5 mM EDTA, 110 mM NaCl). The hydrodynamic dimeter of the lipids was monitored using an Anton Paar LitesizerTM 500 to ensure the separation of free and entrapped calcein.
Phospholipid concentration was adjusted to 30 µM for vesicle leakage experiments.
Vesicle leakage assay: Black bottom 96-well plates were prepared with the appropriate lipid solution (100 µL, 30 µM) and desired SSA solution (100 µL) prepared in H2O/EtOH 95: 5. A solution of 1 % Triton X-100 (16) was used for a 100 % lysis control and a H2O/EtOH 95: 5 solution was used as a 0 % lysis control. Fluorescent measurements were taken at 25 °C using an excitation value of 495 nm and an optimised gain of 983. Data were acquired in endpoint mode. All experiments were repeated in triplicate to ensure experimental reproducibility. […]
Data

MRSA USA300 [4] = conditions: n = 3, 0.5 McFarland standard, after 900 min, number in bracket = efficacy rank; cited from earlier work
E. coli DH10B [5] = conditions: after 900 min, cited from earlier work

Compound	MIC50 (MRSA USA300 [1]) [µg/mL]	MIC50 (E. coli DH10B [2]) [µg/mL]	vesicle lysis activity [3]	MIC50 MRSA (MRSA USA300 [4])	MIC50 E. coli (E. coli DH10B [5]; E. coli DH10B, n = 3, 0.5 McFarland standard, number in bracket = efficacy rank)	initial antimicrobial screening, inhibition of growth, E. coli (E. coli DH10B [5]; 3.3 mM)
CCCCNC(=S)NCS(=O)(=O)O [SSA 14]	1440 (≈ 6.34 mM)	2820 (≈ 12.5 mM)	almost complete loss of any vesicle lysis activity	3.07(9) mM	6.03(9) mM	–
CCCCNC(=O)NCS(=O)(=O)O [SSA 13]	1990 (≈ 9.47 mM)	–	almost complete loss of any vesicle lysis activity	4.41(10) mM	–	^c (SSA did not pass initial antimicrobial screening, exhibited <10% inhibition of growth at 3.3 mM after 900 min and therefore excluded from further study)
